Drawing on patent US8580965B2, “Substituted sulfonamide compounds” (Gruenenthal GmbH, priority 2006, dated 2013), this text covers inhibition for ten compounds.

Assay [1] has as its target T1, B1R receptor of the rat (bradykinin 1 receptor) (Rattus norvegicus, UniProt P97583).
T1 construct: host or cells: CHO K1 cells (rB1R cells)
T1 sequence (P97583 1-337): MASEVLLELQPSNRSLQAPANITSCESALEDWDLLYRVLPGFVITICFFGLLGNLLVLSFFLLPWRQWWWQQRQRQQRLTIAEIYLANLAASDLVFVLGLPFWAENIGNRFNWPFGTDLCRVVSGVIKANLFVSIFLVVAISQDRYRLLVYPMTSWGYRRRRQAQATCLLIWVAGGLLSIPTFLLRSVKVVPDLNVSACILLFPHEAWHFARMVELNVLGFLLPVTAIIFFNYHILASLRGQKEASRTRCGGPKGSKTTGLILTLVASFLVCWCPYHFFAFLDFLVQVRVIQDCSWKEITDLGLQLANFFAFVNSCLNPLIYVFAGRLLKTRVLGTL
The assay is described as follows: FLIPR Ca2+ assay (Fluo-4) on CHO K1 cells stably transfected with the B1R gene of the rat; % activation and % inhibition at 10 μM. The assay is classed as cell-based. The conditions noted are these: CHO-K1, test substance 10 μM; CHO K1 rB1R cells; Ca2+ inflow after 100 nM Des-Arg9-bradykinin; read-out: B1R antagonism, rat [10 μM] % inhibition. In short, it runs like this:
(§1)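 Fluo-4 Ca2+ flux on FLIPR in stable hB1R or rB1R CHO K1 lines, two additions. Agonism: 10 µM compound versus 0.5 nM Lys-Des-Arg9-BK (human) or 100 nM Des-Arg9-BK (rat); antagonism: same agonists applied 10 min later, suppression expressed against maximum achievable inhibition.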

Assay [2] concerns the target T2, human B1R receptor (bradykinin 1 receptor) (Homo sapiens, UniProt P46663).
T2 construct: host or cells: CHO K1 cells (hB1R cells)
T2 sequence (P46663 1-353): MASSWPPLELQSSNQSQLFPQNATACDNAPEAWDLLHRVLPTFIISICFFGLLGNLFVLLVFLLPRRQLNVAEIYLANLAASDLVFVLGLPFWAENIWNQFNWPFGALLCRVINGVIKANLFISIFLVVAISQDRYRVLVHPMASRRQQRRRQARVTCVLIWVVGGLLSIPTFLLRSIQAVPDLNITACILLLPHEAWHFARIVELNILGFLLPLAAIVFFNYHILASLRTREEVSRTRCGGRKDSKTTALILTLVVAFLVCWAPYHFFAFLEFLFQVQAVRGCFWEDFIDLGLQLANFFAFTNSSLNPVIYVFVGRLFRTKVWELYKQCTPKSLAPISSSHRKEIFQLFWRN
As to the kind of experiment: FLIPR Ca2+ assay (Fluo-4) on CHO K1 cells stably transfected with the human B1R gene; % activation and % inhibition at 10 μM. It is filed as cell-based. The conditions noted are these: CHO-K1, test substance 10 μM; CHO K1 hB1R cells; Ca2+ inflow after 0.5 nM Lys-Des-Arg9-bradykinin; read-out: B1R antagonism, human [10 μM] % inhibition. Put shortly: as §1

On to `COc1cc(C)c(S(=O)(=O)N2CCC(COCC(=O)N3CCC(O)(c4ccc(Br)cc4)CC3)C2)c(C)c1` (centres unmarked) [Example 230, 1-(4-(4-bromophenyl)-4-hydroxypiperidin-1-yl)-2-((1-(4-methoxy-2,6-dimethylphenylsulfonyl)pyrrolidin-3-yl)methoxy)ethanone], for which the inhibition at 10 µM in assay [1] and in assay [2] was 100% in each case.

On to `O=C(COCC1Cc2ccccc2CN1S(=O)(=O)c1ccc(F)cc1)N1CCC(O)(c2ccccn2)CC1` (centres unmarked) [Example 72, 2-[2-(4-fluoro-phenylsulfonyl)-1,2,3,4-tetrahydro-isoquinolin-3-ylmethoxy]-1-(4′-hydroxy-3′,4′,5′,6′-tetrahydro-2′H-[2,4′]bipyridinyl-1′-yl)-ethanone], for which the inhibition at 10 µM came out at 18.7% in assay [1] and 3.33% in assay [2].

Consider `COc1cc(C)c(S(=O)(=O)N2CCCC(COCC(=O)N3CCC(O)(Cc4ccccc4)CC3)C2)c(C)c1` (centres unmarked) [Example 252, 1-(4-benzyl-4-hydroxypiperidin-1-yl)-2-((1-(4-methoxy-2,6-dimethylphenylsulfonyl)piperidin-3-yl)methoxy)ethanone], for which the figures for the inhibition at 10 µM in assay [1] and in assay [2] were 100% and 32.7%, respectively.

For `O=C(COC1CCN(S(=O)(=O)c2cccc(C(F)(F)F)c2)C1)N1CCC(O)(c2ccccn2)CC1` (centres unmarked) [Example 59, 1-(4′-hydroxy-3′,4′,5′,6′-tetrahydro-2′H-[2,4′]bipyridinyl-1′-yl)-2-[1-(3-trifluoromethyl-phenylsulfonyl)-pyrrolidin-3-yloxy]-ethanone], the figures for the inhibition at 10 µM in assay [1] and in assay [2] were 16.6% and -24%, respectively.

Regarding `O=C(COCC1CCCCN1S(=O)(=O)c1cc(Cl)sc1Cl)N1CCC(O)(c2cccnc2)CC1` (centres unmarked) [Example 229, 2-((1-(2,5-dichlorothiophen-3-ylsulfonyl)piperidin-2-yl)methoxy)-1-(4-hydroxy-4-(pyridin-3-yl)piperidin-1-yl)ethanone], the inhibition at 10 µM is 100% in assay [1] and 65.5% in assay [2].

For the compound `COc1cc(C)c(S(=O)(=O)N2CCCC2COCC(=O)N2CCC(O)(c3cccnc3)CC2)c(C)c1` (centres unmarked) [Example 193, 1-(4-hydroxy-4-(pyridin-3-yl)piperidin-1-yl)-2-((1-(4-methoxy-2,6-dimethylphenylsulfonyl)pyrrolidin-2-yl)methoxy)ethanone], the inhibition at 10 µM in assay [1] was determined as 96.6%; in assay [2], 104%.

With `COc1cc(C)c(S(=O)(=O)N2CCCC2COCC(=O)N2CCC(O)(c3ccccc3)CC2)c(C)c1` (centres unmarked) [Example 215, 1-(4-hydroxy-4-phenylpiperidin-1-yl)-2-((1-(4-methoxy-2,6-dimethylphenylsulfonyl)pyrrolidin-2-yl)methoxy)ethanone], the inhibition at 10 µM in assay [1] turned out to be 102%; in assay [2] it was 104%.

Regarding `CN(CCOCC(=O)N1CCC(O)(c2ccc(Br)cc2)CC1)S(=O)(=O)c1cc(Cl)sc1Cl` [Example 261, N-(2-(2-(4-(4-bromophenyl)-4-hydroxypiperidin-1-yl)-2-oxoethoxy)ethyl)-2,5-dichloro-N-methylthiophene-3-sulfonamide], the figures for the inhibition at 10 µM in assay [1] and in assay [2] were 98.5% and 87.8%, respectively.

As to `O=C(COCC1CCCCN1S(=O)(=O)c1c(Cl)cc(C(F)(F)F)cc1Cl)N1CCC(O)(c2ccc(Cl)c(C(F)(F)F)c2)CC1` (centres unmarked) [Example 165, 1-(4-(4-chloro-3-(trifluoromethyl)phenyl)-4-hydroxypiperidin-1-yl)-2-((1-(2,6-dichloro-4-(trifluoromethyl)phenylsulfonyl)piperidin-2-yl)methoxy)ethanone], the inhibition at 10 µM in assay [1] worked out at 104%; in assay [2], 2.63%.

Consider `Cc1cc(S(=O)(=O)N(C)CCOCC(=O)N2CCC(O)(c3ccc(Br)cc3)CC2)c(C)cc1Cl` [Example 151, N-(2-(2-(4-(4-bromophenyl)-4-hydroxypiperidin-1-yl)-2-oxoethoxy)ethyl)-4-chloro-N,2,5-trimethylphenylsulfonamide], for which the inhibition at 10 µM was 86.9% in assay [1] and 97.8% in assay [2].

By inhibition is commonly meant the drop in the measured response relative to a control, in per cent.
